Test results as given in patent US12616716B2, “Wound healing dressings and formulations and methods of use thereof” (Polaroid IP B.V., priority 2023, dated 2026).
Values after ≈ are worked out from the molar mass of the structure shown. Marks after values point to notes of the source that are not given here.

Key:
[1] = tested on: mammalian cells (HDF and HaCaT); experiment: Mammalian cell cytotoxicity (LDH and MTS), both cell populations; format: cell-based, human
Method: (§1) Primary Human Dermal Fibroblast (HDFs) and Human Keratinocyte (HaCaT) cells were selected for cytotoxicity and proliferation testing. HDFs were cultured in high glucose, no glutamine, no phenol red, Dulbecco's Modified Eagle Medium (DMEM) (GIBCO™). HDF media was further supplemented with 10% heat-inactivated fetal bovine serum (GIBCO™), 1% L-glutamine (GIBCO™) and 1% Penicillin-streptomycin (GIBCO™). HaCaTs cells were cultured in high glucose, no glutamine, no calcium DMEM (GIBCO™) supplemented with 10% heat inactivated foetal bovine serum, 1% L-glutamine, 1% Penicillin-streptomycin 1 mM calcium chloride (Sigma) throughout.
Mammalian cell populations were maintained in standard culture conditions at 37° C., 5% CO2 and >95% relative humidity. […] Once complete, the pellet of cells was re-suspended in 10 mL warmed culture media and the number of cells per mL was determined using a hemocytometer counting chamber. […]
(§2) The secretion of lactate dehydrogenase (LDH) enzyme was used for quantitatively measuring cell damage and cytotoxicity. As damage to the cell plasma membrane releases LDH into the cell culture media, the extracellular LDH in the media can be quantified by a coupled enzymatic reaction in which LDH catalyzes the conversion of lactate to pyruvate via NAD+ reduction to NADH. […]

[2] = tested on: all tested bacteria (Gram-positive and Gram-negative); experiment: MIC / antimicrobial activity over the whole panel of tested bacteria
S. aureus NRS 384 = experiment: Mouse Staphylococcus aureus-induced wound infection model, bacteria load in wound site; settings: 50 μL/wound site
[3] = tested on: Staphylococcus aureus MR1; experiment: MBC, spot plating after 24 h in MH broth; settings: Table 18; —: no activity observed
Method: (§5) To determine MBC compound concentrations breakpoints were estimated from MIC curves. Overnight cultures were set up as described above for all bacterial strains. The following day overnight cultures were adjusted to give a cell density of 5×10^5 cells per mL. Briefly, cultures were adjusted to the McFarland standard (0.08-0.12) and diluted (1:150). Adjusted cultures were inoculated into 96 well plates with 50 μL sterile Muller-Hinton broth (MHB) and 2 concentrations of each compound. […] MBC cultures were quantified by serial dilution in a 96 well plate and spot plating onto Muller-Hinton agar (MHA). MHA plates were incubated at 37° C. for 24 h and counted. Results are presented as CFU per mL.
(§6) To determine MBC compound concentrations, breakpoints were estimated from MIC curves. Overnight cultures were set up as described above for all bacterial strains. The following day overnight cultures were adjusted to give a cell density of 5×10^5 cells per mL. Briefly, cultures were adjusted to the McFarland standard (0.08-0.12) and diluted (1:150). Adjusted cultures were inoculated into 96 well plates with 50 μL sterile Muller-Hinton broth (MHB) and 2 concentrations of each compound. […] MBC cultures were quantified by serial dilution in a 96 well plate and spot plating onto Muller-Hinton agar (MHA). MHA plates were incubated at 37° C. for 24 hours and counted.
(§7) These compounds were tested for their MBC against a panel of ATCC and nosocomial bacteria.

[4] = tested on: Klebsiella pneumoniae KL1; experiment: MIC, broth microdilution in MH broth with resazurin; format: cell-based; settings: Table 17; modified Gompertz fit; only values marked ^ are reliable estimates, others unreliable
[5] = tested on: Human Keratinocyte (HaCaT) cells; experiment: LDH cytotoxicity assay, HaCaT; format: cell-based; settings: Table 16, summarized cell toxicity values
Method: as §1
(§3) Mammalian cell populations were maintained in standard culture conditions at 37° C., 5% CO2 and >95% relative humidity. Upon reaching 80% total confluency, cells were removed from the incubator, the culture media aspirated, and the monolayer washed with Dulbecco's […] (DPBS). After washing, 10 mL of 1% trypsin (GIBCO™) was added to the flask and incubated to facilitate the detachment of cells from the culture vessel. Following dissociation, 10 mL of culture media was then added to each flask to neutralize the trypsin enzyme activity. The total 20-mL flask volume was transferred into a universal tube and centrifuged at 400 rcf for 5 minutes. Once complete, the pellet of cells was re-suspended in 10 mL warmed culture media and the number of cells per mL was determined using a hemocytometer counting chamber. Cell suspensions were then adjusted to 5×10^4 cells/mL for HDFs and 1×10^5 cells/mL for HaCaTs. 100 μL of the cell suspension was added to each well of a sterile, cell-culture-treated 96-well microtiter plate. The plates were incubated in standard culture conditions for 16-24 hours to allow cellular adherence to the culture vessel. […] Culture plates were removed from the incubator, the media removed; and monolayers washed with 100 μL of warmed DPBS. The contents of the test item dilution plates were transferred to the culture plates. […]
as §2
(§4) Following incubation with the selected compounds, 50 μL of media from each well was transferred to the corresponding well of a fresh 96 well culture plate. The presence of Lactate dehydrogenase (LDH) was then quantified using the INVITROGEN™ CyQUANT™ LDH Cytotoxicity Assay, fluorescence kit. Total fluorescence was measured by reading the plates on a plate reader at an excitation of 560 nm and an emission of 590 nm. […]

Escherichia coli EC25922 [6] = experiment: MBC, spot plating after 24 h in MH broth; settings: Table 18; —: no activity observed
Method: as §5, §6, §7

[7] = tested on: Enterococcus faecalis EF19433; experiment: MIC, broth microdilution in MH broth with resazurin; format: cell-based; settings: for MIC EF19433: Table 17, modified Gompertz fit, only values marked ^ are reliable estimates, others unreliable
[8] = tested on: Primary Human Dermal Fibroblast (HDFs); experiment: LDH cytotoxicity assay, HDF; format: cell-based; settings: Table 16, summarized cell toxicity values
Method: as §1, §3, §2, §4

[9] = tested on: Staphylococcus aureus MR1; experiment: MIC, broth microdilution in MH broth with resazurin; format: cell-based; settings: Table 17; modified Gompertz fit; only values marked ^ are reliable estimates, others unreliable
[10] = tested on: Enterococcus faecalis EF19433; experiment: MBC, spot plating after 24 h in MH broth; settings: Table 18; —: no activity observed
Method: as §5, §6, §7

[11] = tested on: Staphylococcus aureus ATCC 29213; experiment: MBC, spot plating after 24 h in MH broth; settings: Table 18; —: no activity observed
Method: as §5, §6, §7

Escherichia coli EC25922 [12] = experiment: MIC, broth microdilution in MH broth with resazurin; format: cell-based; settings: Table 17; modified Gompertz fit; only values marked ^ are reliable estimates, others unreliable
[13] = tested on: Staphylococcus aureus ATCC 29213; experiment: as above; format: cell-based; settings: for MIC SA29213: Table 17, modified Gompertz fit, only values marked ^ are reliable estimates, others unreliable
[14] = tested on: Pseudomonas aeruginosa 27853; experiment: as above; format: cell-based; settings: Table 17; modified Gompertz fit; only values marked ^ are reliable estimates, others unreliable
[15] = tested on: Enterococcus faecalis EF51299; experiment: as above; format: cell-based; settings: for MIC EF51299: Table 17, modified Gompertz fit, only values marked ^ are reliable estimates, others unreliable
[16] = tested on: Klebsiella pneumoniae KL1; experiment: MBC, spot plating after 24 h in MH broth; settings: Table 18; —: no activity observed
Method: as §5
(§8) To determine MBC compound concentrations, breakpoints were estimated from MIC curves. Overnight cultures were set up as described above for all bacterial strains. The following day overnight cultures were adjusted to give a cell density of 5×10^5 cells per mL. Briefly, cultures were adjusted to the McFarland standard (0.08-0.12) and diluted (1:150). Adjusted cultures were inoculated into 96 well plates with 50 μL sterile Muller-Hinton broth (MHB) and 2 concentrations of each compound. […] MBC cultures were quantified by serial dilution in a 96 well plate and spot plating onto Muller-Hinton agar (MHA). MHA plates were incubated at 37° C. for 24 hours and counted. […]

[17] = tested on: Enterococcus faecalis EF51299; experiment: MBC, spot plating after 24 h in MH broth; settings: Table 18; —: no activity observed
Method: as §5, §8

[18] = tested on: Staphylococcus aureus NRS384; experiment: MIC, broth microdilution in MH broth with resazurin; format: cell-based; settings: Table 21 (Example 8); Staphylococcus aureus NRS384; read-out: MIC Concentration

Structure (SMILES) | MBC MR1 [3] | MIC KL1 [4] | Mammalian Cell Cytotoxicity, HaCaT [5] | MBC EC25922 (Escherichia coli EC25922 [6]) | MIC EF19433 [7] | Mammalian Cell Cytotoxicity, HDF [8] | MIC MR1 [9] | MBC EF19433 [10] | MBC SA29213 [11] | MIC EC25922 (Escherichia coli EC25922 [12]) | MIC SA29213 [13] | MIC PA27853 [14] | MIC EF51299 [15] | further results
CCCCCCCCCCCCCCCCCC[N+](C)(C)CCOCCO.[Br-] [Compound 39637] | – | – | – | – | – | – | – | – | – | – | – | – | – | concentration with almost total/complete absence of viable cells ([1]; HDF and HaCaT): 6.3 µM; concentration at which LDH secretion began to rapidly exceed control levels ([1]; HDF and HaCaT populations): 3.12 µM; antimicrobial activity towards the gram +ve species Enterococcus faecalis and Staphylococcus aureus (in words) [2]: strong antimicrobial activity; Ig(CFU/wound site) 24 h p.i. (S. aureus NRS 384; Study I, 100 μM, once a day): 8.49 ± 0.30 Ig(CFU/wound site); ΔIg(CFU/wound site) vs 12 h infection control (S. aureus NRS 384; Study I, 100 μM, once a day): −0.23 ± 0.06 Ig(CFU/wound site); ΔIg(CFU/wound site) vs 24 h infection control (S. aureus NRS 384; Study I, 100 μM, once a day): −0.29 ± 0.30 Ig(CFU/wound site); Ig(CFU/wound site) 12 h p.i. (S. aureus NRS 384; Study I, 100 μM, once a day from 5 min p.i., inoculum 4.20E+06 CFU/wound site): 8.35 ± 0.06 Ig(CFU/wound site); Ig(CFU/wound site) 24 h p.i. (S. aureus NRS 384; Study II, 300 μM, once a day): 8.90 ± 0.10 Ig(CFU/wound site); ΔIg(CFU/wound site) vs 12 h infection control (S. aureus NRS 384; Study II, 300 μM, once a day): −0.45 ± 0.40 Ig(CFU/wound site); ΔIg(CFU/wound site) vs 24 h infection control (S. aureus NRS 384; Study II, 300 μM, once a day): 0.04 ± 0.10 Ig(CFU/wound site); Ig(CFU/wound site) 12 h p.i. (S. aureus NRS 384; Study II, 300 μM, once a day, inoculum 2.50E+06 CFU/wound site): 8.14 ± 0.40 Ig(CFU/wound site); Ig(CFU/wound site) 12 h p.i. (S. aureus NRS 384; Study II, 1000 μM, once a day): 5.44 ± 0.94 Ig(CFU/wound site); Ig(CFU/wound site) 24 h p.i. (S. aureus NRS 384; Study II, 1000 μM, once a day): 5.81 ± 1.79 Ig(CFU/wound site); ΔIg(CFU/wound site) vs 12 h infection control (S. aureus NRS 384; Study II, 1000 μM, once a day): −3.15 ± 0.94 Ig(CFU/wound site); ΔIg(CFU/wound site) vs 24 h infection control (S. aureus NRS 384; Study II, 1000 μM, once a day): −3.06+1.79** Ig(CFU/wound site)
CCCCCCCCCCCCCCCCCC[N+](C)(C)CCOCCO.[Br-] [Compound 39637_105543] | 6.25 µM | +infinity | 6.3 µM | 25 µM | 3.20^ μM | 6.3 µM | 10.58^ μM | 1.57 µM | 1.57 µM | 42.96 µM | 3.16 µM | 53.54 µM | 62.65^ μM | –
CCCCCCCCCCCCCCCCCC[N+](C)(C)CCOCCO.[Br-] [Compound 39637_109466] | 6.25 µM | 2.06 µM | 6.3 µM | 25 µM | 2.59^ μM | 6.3 µM | 10.78^ μM | 1.57 µM | 1.57 µM | 59.94 µM | 3.05 µM | 62.14^ μM | 16.81^ μM | MBC KL1 [16]: 50 µM; MBC EF51299 [17]: 1.57 µM
CCCCCCCCCCCC[N+](C)(C)CCOCCO.[Br-] [Compound 40597_109444] | – | 0.01 µM | 100 µM | – | 1.63^ μM | 100 µM | 0.94 µM | – | – | – | – | 2.84 µM | 27.19^ μM | –
CCCCCC[N+](C)(C)CCOCCO.[Br-] [Compound 40598_109448] | – | 48.98 µM | >100 µM | – | Unstable | >100 µM | – | – | – | 0.83 µM | 1.93 µM | 0.06 µM | – | –
CC(=O)O[C@H]1C[C@@]2(C)[C@@H](C[C@@H](O)[C@H]3[C@@]4(C)CC[C@@H](O)[C@@H](C)[C@@H]4CC[C@@]32C)/C1=C(\CCC=C(C)C)C(=O)O [fusidic acid] | – | – | – | – | – | – | – | – | – | – | – | – | – | MIC [18]: 0.04 µM (≈ 0.0207 µg/mL); MIC ([7]; Table 21 (Example 8), Enterococcus faecalis EF19433, read-out: MIC Concentration): 5 µM (≈ 2.58 µg/mL); MIC ([13]; ATCC29213, Table 21 (Example 8), Staphylococcus aureus 29213, read-out: MIC Concentration): 0.04 µM (≈ 0.0207 µg/mL); MIC ([15]; Table 21 (Example 8), Enterococcus faecalis EF51299, read-out: MIC Concentration): 5 µM (≈ 2.58 µg/mL)
